According to PubChem BioAssay (NCI):
Where “and” joins values, the source holds several entries; their conditions need not be identical. Identical values can stand only once.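 Five compound concentrations were applied to cells in 96-well plates for 48 hours; endpoints were derived by simple linear interpolation of the resulting dose-response curve. At the TGI there is no net growth.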

How the values were obtained:
Assay in all cases: NCI tumour cell line growth inhibition, 48 h
ACHN renal = test system: ACHN renal
U251 CNS = test system: U251 CNS
A498 renal = test system: A498 renal
LOX IMVI melanoma = test system: LOX IMVI melanoma
OVCAR-4 ovarian = test system: OVCAR-4 ovarian
SNB-75 CNS = test system: SNB-75 CNS
KM12 colon = test system: KM12 colon
HCT-15 colon = test system: HCT-15 colon
OVCAR-3 ovarian = test system: OVCAR-3 ovarian
UACC-257 melanoma = test system: UACC-257 melanoma

SMILES	TGI (ACHN renal)	TGI (U251 CNS)	TGI (A498 renal)	TGI (LOX IMVI melanoma)	TGI (OVCAR-4 ovarian)	TGI (SNB-75 CNS)	TGI (KM12 colon)	TGI (HCT-15 colon)	TGI (OVCAR-3 ovarian)	TGI (UACC-257 melanoma)
CC1(C)CCC2(C(=O)OC3OC(CO)C(O)C(O)C3O)CCC3(C)C(=CCC4C5(C)CCC(OC6OC(CO)C(O)C(O)C6O)C(C)(C)C5CCC43C)C2C1 (stereo not drawn)	> 25 µM	10.4 µM	> 25 µM	8.51 µM	> 25 µM	> 25 µM	19 µM	> 25 µM	> 25 µM	> 25 µM
N[C@H]1CCN(c2c(F)cc3c(=O)c(C(=O)O)cn4c3c2Oc2cc3c(ccc5ccccc53)cc2-4)C1	8.06 µM	5.02 µM	> 100 µM	> 100 µM	> 100 µM		> 100 µM	> 100 µM	> 100 µM	> 100 µM
COc1ccc(N=c2ssc(C(=S)Nc3ccc(OC)cc3)c2S)cc1	> 100 µM	> 100 µM	> 100 µM	> 100 µM	> 100 µM	> 100 µM	> 100 µM	> 100 µM	> 100 µM	> 100 µM
Nc1ccc2c(c1)C(=O)N(O)C2=O	> 100 µM	> 100 µM	> 100 µM	> 100 µM	> 100 µM	> 100 µM	> 100 µM	> 100 µM	> 100 µM	> 100 µM
CC1=C2C(=O)OCC23C=COC3(C)O1 (stereo not drawn)	> 100 µM	> 100 µM	> 100 µM	> 100 µM	> 100 µM	77.3 µM	95.9 µM	> 100 µM	97.1 µM	> 100 µM
N#CC(c1ccccc1)N1CCCN(C(C#N)c2ccccc2)C1c1ccccc1O (stereo not drawn)	> 100 µM	> 100 µM	> 100 µM	> 100 µM	> 100 µM	> 100 µM	> 100 µM	> 100 µM	> 100 µM	> 100 µM
CCOC(=O)/C(=C\NCC(OCC)OCC)c1nc2ccccc2[nH]1	> 100 µM	> 100 µM	> 100 µM	55.4 µM	> 100 µM	61.6 µM	> 100 µM	51.8 µM	61.9 µM	58.7 µM
CN(C)CCn1c(=O)c2ccc3c4c(nn3CCN(C)C)c3cc(N)ccc3n(c1=O)c24	0.428 µM	3.39 µM	0.364 µM	0.127 µM	0.0511 µM	0.0971 µM	0.63 µM	0.222 µM	0.164 µM	0.433 µM
COc1ccc(/C=C(\C#N)c2nc(N)nc(N3N=C(C)CC3(C)C)n2)c(O)c1	31 µM	94.1 µM	69.7 µM		30.4 µM		29.2 µM	35.3 µM	28.3 µM	59.1 µM
O=CN1CCN(C(=O)c2cc(Cl)cc(Cl)c2)C1=S	31.7 µM	36 µM	29.6 µM	22.3 µM	33.4 µM	27 µM	29.8 µM	35.2 µM	27.9 µM	32.3 µM
CC(=O)OC1CC(O)CC2=CCC3C4CCC(C(C)(O)C(O)CC5COC(=O)C5C)C4(C)CCC3C21C (stereo not drawn)	> 25 µM	> 25 µM	> 25 µM	> 25 µM	> 25 µM	> 25 µM	> 25 µM	> 25 µM	> 25 µM	> 25 µM
O=S1(=O)OC(c2ccc(O)cc2)(c2ccc(O)cc2)c2ccccc21	> 100 µM	> 100 µM	> 100 µM	> 100 µM	> 100 µM	> 100 µM	> 100 µM	> 100 µM	> 100 µM	> 100 µM
[O-][N+](CCO)(CCO)c1ncnc2nc[nH]c12	> 100 µM	> 100 µM	> 100 µM	> 100 µM	> 100 µM	> 100 µM	> 100 µM	> 100 µM	> 100 µM	> 100 µM
O=[n+]1c2c(n([O-])c3ccccc31)-c1cccc3cccc-2c13	> 100 µM	> 100 µM	> 100 µM	> 100 µM	> 100 µM	94.7 µM	> 100 µM	> 100 µM	> 100 µM	> 100 µM
CC[C@@]1(O)C(=O)OCc2c1cc1n(c2=O)Cc2c-1nc1ccc(O)cc1c2CC[Si](C)(C)C	0.363 µM		0.0279 µM	0.114 µM	0.0538 µM		0.0659 µM	95 µM	0.127 µM	0.136 µM and 0.0447 µM
COc1ccc(N=C2C(=O)C3=C(OC(C)(C)CC3)c3ccccc32)cc1	1.57 µM	1.65 µM	14.7 µM	10.3 µM	1.51 µM	1.96 µM	1.97 µM	10.8 µM	1.5 µM	2.09 µM
CCOC(=O)C1CCn2c(nc3c2c(=O)n(C)c(=O)n3C)S1 (stereo not drawn)	> 100 µM	> 100 µM		> 100 µM	> 100 µM	> 100 µM		> 100 µM	> 100 µM	> 100 µM
Nc1nc(N)c2c(n1)NC(c1ccccc1)CC(/C=C/c1ccc(Cl)cc1)=N2 (stereo not drawn)	25.5 µM	> 100 µM	32.9 µM	13.4 µM	20.5 µM	33.9 µM	13.6 µM	23.3 µM	23.4 µM	7.78 µM
Cc1cc(O)c(C(C)C)cc1CN1CCCCC1	> 100 µM	> 100 µM	> 100 µM	> 100 µM	> 100 µM	> 100 µM	> 100 µM	> 100 µM	> 100 µM	> 100 µM
COC(=O)C1C(O)CCC2CN3CCc4c([nH]c5cccc(OC)c45)C3CC21 (stereo not drawn)	> 100 µM	> 100 µM	> 100 µM	> 100 µM	> 100 µM	> 100 µM	> 100 µM	> 100 µM	> 100 µM	> 100 µM
